Results as given in ChEMBL document CHEMBL1127273, “Novel cholecystokinin receptor ligands: Oxopiperazines derived from Boc-CCK-4” (Bioorg Med Chem Lett, 1994).
Residues, ends and D or L forms follow the SMILES beside them. *: point of attachment. NHPhenethyl = c1ccc(CCN*)cc1; Boc = CC(C)(C)OC(=O)*

Experiments:
[1] = target: T1, Gastrin/cholecystokinin type B receptor (Mus musculus, UniProt P56481); assay: Concentration producing half-maximal inhibition of specific binding of [125I]- CCK-8 to CCK receptors mouse forebrain membranes (CCK-B); type: tissue-based, Brain
T1 sequence (P56481 whole entry): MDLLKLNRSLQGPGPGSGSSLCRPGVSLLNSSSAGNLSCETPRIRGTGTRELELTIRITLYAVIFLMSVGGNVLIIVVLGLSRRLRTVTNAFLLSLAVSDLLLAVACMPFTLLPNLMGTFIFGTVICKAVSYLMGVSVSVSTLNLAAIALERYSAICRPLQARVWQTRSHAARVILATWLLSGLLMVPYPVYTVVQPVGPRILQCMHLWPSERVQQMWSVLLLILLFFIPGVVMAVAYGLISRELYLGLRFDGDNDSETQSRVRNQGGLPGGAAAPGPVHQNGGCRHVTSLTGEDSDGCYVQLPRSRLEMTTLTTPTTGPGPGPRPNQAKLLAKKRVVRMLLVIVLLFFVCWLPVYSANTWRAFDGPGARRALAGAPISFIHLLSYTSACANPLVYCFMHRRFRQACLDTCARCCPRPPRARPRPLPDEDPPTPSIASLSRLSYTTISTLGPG

[2] = target: Cholecystokinin receptor (Mus musculus) (UniProt O08786+P56481); assay: Ratio of CCK-A receptor to CCK-B receptor was determined; type: protein assay
[3] = target: T2, Cholecystokinin receptor type A (Mus musculus, UniProt O08786); assay: Concentration producing half-maximal inhibition of specific binding of [125I]- CCK-8 to CCK receptors on mouse pancreatic membranes (CCK-A)
T2 sequence (O08786 whole entry): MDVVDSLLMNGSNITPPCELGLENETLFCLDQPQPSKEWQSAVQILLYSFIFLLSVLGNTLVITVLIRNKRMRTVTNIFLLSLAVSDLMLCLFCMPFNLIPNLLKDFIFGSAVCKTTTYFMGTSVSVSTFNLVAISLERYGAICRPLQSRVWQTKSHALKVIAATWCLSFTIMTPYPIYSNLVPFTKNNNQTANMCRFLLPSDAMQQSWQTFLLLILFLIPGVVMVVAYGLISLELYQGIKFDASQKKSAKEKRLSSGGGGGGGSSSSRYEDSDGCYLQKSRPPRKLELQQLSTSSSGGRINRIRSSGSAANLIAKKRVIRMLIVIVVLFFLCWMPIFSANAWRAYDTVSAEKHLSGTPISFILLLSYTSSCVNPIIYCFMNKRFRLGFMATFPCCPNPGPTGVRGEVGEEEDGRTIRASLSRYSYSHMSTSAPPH

IC50 [1] [µM] | Ratio [2] | IC50 [3] [µM] | SMILES
8.9 | 6.3 | 56 | CC(C)C[C@H](NC(=O)CCc1c[nH]c2ccccc12)C(=O)N1C[C@H](Cc2ccccc2)NC(=O)[C@@H]1CC(=O)O
15 | 0.0009 | 0.014 | CC(C)C[C@H](NC(=O)[C@H](Cc1c[nH]c2ccccc12)NC(=O)OCc1ccccc1)C(=O)N1CC(=O)N[C@H](Cc2ccccc2)C1
17 | 0.21 | 3.6 | CC(C)C[C@H](NC(=O)[C@H](Cc1c[nH]c2ccccc12)NC(=O)OC(C)(C)C)C(=O)N1C[C@@H](Cc2ccccc2)NC(=O)[C@@H]1CC(=O)O
10 | 2.4 | 24 | CC(C)C[C@H](NC(=O)C(NC(=O)OC(C)(C)C)c1ccccc1)C(=O)N1CC(=O)N[C@@H](Cc2ccccc2)C1 (stereo not given in full)
15 | 3.4 | 51 | CC(C)C[C@H](NC(=O)[C@@H](N)Cc1c[nH]c2ccccc12)C(=O)N1C[C@H](Cc2ccccc2)NC(=O)[C@@H]1CC(=O)O
70 | 0.09 | 6.3 | CC(C)C[C@H](NC(=O)[C@H](Cc1c[nH]c2ccccc12)NC(=O)OC(C)(C)C)C(=O)N1C[C@@H](Cc2ccccc2)NC(=O)[C@H]1CC(=O)O
> 100 |  | 1.4 | CCCC[C@H](NC(=O)c1c[nH]c2ccccc12)C(=O)N1C[C@H](Cc2ccccc2)NC(=O)[C@@H]1CC(=O)O
 | 10 |  | CC(C)C[C@H](NC(=O)[C@H](Cc1c[nH]c2ccccc12)NC(=O)OC(C)(C)C)C(=O)N[C@@H](CC(=O)O)C(=O)NCCc1ccccc1 (Boc-Trp-Leu-Asp-NHPhenethyl)
18 | 0.0036 | 0.064 | CC(C)C[C@H](NC(=O)[C@H](Cc1c[nH]c2ccccc12)NC(=O)OCc1ccccc1)C(=O)N1CC(=O)N[C@@H](Cc2ccccc2)C1
7.4 | 0.38 | 2.8 | CC(C)C[C@H](NC(=O)[C@H](Cc1c[nH]c2ccccc12)NC(=O)OC(C)(C)C)C(=O)N1C[C@H](Cc2ccccc2)NC(=O)[C@H]1CC(=O)O (mixture of isomers)
2.5 | 5.2 | 13 | CC(C)C[C@H](NC(=O)Cc1c[nH]c2ccccc12)C(=O)N1C[C@H](Cc2ccccc2)NC(=O)[C@@H]1CC(=O)O
8.2 | 0.077 | 0.63 | CC(C)C[C@H](NC(=O)[C@H](Cc1c[nH]c2ccccc12)NC(=O)OC(C)(C)C)C(=O)N1C[C@H](CCc2ccccc2)NC(=O)[C@@H]1CC(=O)O
9.4 | 1 | 9.4 | CC(C)C[C@H](NC(=O)[C@H](Cc1c[nH]c2ccccc12)NC(=O)OC(C)(C)C)C(=O)N1C[C@H](c2ccccc2)NC(=O)[C@@H]1CC(=O)O
1.2 | 6 | 7.2 | CCCC[C@H](NC(=O)Cc1c[nH]c2ccccc12)C(=O)N1C[C@H](Cc2ccccc2)NC(=O)[C@@H]1CC(=O)O
> 100 |  | 0.52 | CC(C)C[C@H](NC(=O)[C@H](Cc1c[nH]c2ccccc12)NC(=O)/C=C/c1ccccc1)C(=O)N1CC(=O)N[C@@H](Cc2ccccc2)C1
38 | 0.011 | 0.43 | CCOC(=O)N[C@@H](Cc1c[nH]c2ccccc12)C(=O)N[C@@H](CC(C)C)C(=O)N1CC(=O)N[C@@H](Cc2ccccc2)C1
61 | 0.014 | 0.84 | CC(C)C[C@H](NC(=O)[C@H](Cc1c[nH]c2ccccc12)NC(=O)OC(C)(C)C)C(=O)N1C[C@H](Cc2ccccc2)NC(=O)[C@@H]1CC(=O)O

SMILES | IC50 [1] [µM] | Ratio [2] | IC50 [3] [µM]
CC(C)C[C@H](NC(=O)[C@H](Cc1c[nH]c2ccccc12)NC(=O)OC(C)(C)C)C(=O)N1CC(=O)N[C@H](Cc2ccccc2)C1 | 39 | 0.0012 | 0.046
CC(C)C[C@H](NC(=O)[C@H](Cc1c[nH]c2ccccc12)NC(=O)OC(C)(C)C)C(=O)N1CC(=O)N[C@@H](Cc2ccccc2)C1 | 37 | 0.0073 | 0.27
CC(C)C[C@H](NC(=O)[C@@H](Cc1c[nH]c2ccccc12)NC(=O)OC(C)(C)C)C(=O)N1CC(=O)N[C@@H](Cc2ccccc2)C1 | > 100 |  | 5.5
